The record followed here is patent US5409946A, “Isoxazole, isothiazole and pyrazole compounds that enhance cognitive function” (Abbott Laboratories, priority 1993, dated 1995).

The test system of one test is ethanol-induced narcosis. Format: in vivo, male CD1 mice. Particulars: post-treatment. The text has this:
It is known that administration of ethanol to mice induces a state of narcosis in the animals. […] It is also known that certain compounds can modify the narcotic effect of ethanol in this model.
Animals: Male CD1 mice (Charles-River Co., Portage, Mich.) weighing 25-30 g were used in the experiments. Upon arrival they were caged in groups of 14 and allowed to acclimatize to laboratory conditions for one week before the beginning of the studies. They were fed standard rodent diet with food and water ad libitum.
Duration of sleep time: Mice received intraperitoneal (i.p.) injections of ethanol and either saline or one of the drug treatments. Upon loss of the righting reflex, a timer was started to record the duration of the sleep time until the reflex was recovered. Two types of experiments were conducted to study the effect of drugs before (pre-treatment) or after (post-treatment) the injection of the narcotic dose of ethanol. In the pre-treatment experiments the drugs were injected i.p., 15 minutes before ethanol. In the post-treatment experiments the drugs were administered i.p., 1 minute after the animals lost the righting reflex, which was approximately 5 minutes after administration of ethanol.
Drugs: Ethanol was prepared as a 20% v/v (16% w/v) solution in saline. Based on previous studies, a dose of 87 mmol/kg (4 g/kg) was selected as the narcotic dose. RO 15-4513, the benzodiazepine receptor inverse agonist discussed in the Background section, was purchased from RBI (Natick, Mass.). It was dissolved in saline solution with Tween-80 and ultrasonically homogenized for 3 minutes. […] The compounds of Examples 2 and 4, both novel neuronal nicotinic receptor ligands according to the present invention, were also dissolved in saline to the desired concentrations.

For another test, the target named is muscarinic receptors. The class given is binding, rat. Particulars: Table 2. The method, then:
The potencies of ligand binding at central muscarinic binding sites were determined by analysis of competition with the specific muscarinic receptor radioligand [^3 H]-quinuclidinyl benzilate ([^3 H]-QNB). […] Competition between various concentrations of putative nicotinic ligand compounds and 0.2 nM [^3 H]-QNB was performed at 25° C. in an assay volume of 1 mL. After 75 minutes, the bound radioligand was separated by vacuum filtration on Whatman GF/B glass fiber filters. Non-specific binding was defined as radioactivity remaining in the presence of 10 μM atropine. Competition curves were analyzed for Ki values as described above for binding to the nicotinic receptor.

Read-outs that look alike come from different tables or passages of the source.

For orientation: Ki means the dissociation constant of the complex between target and ligand, obtained from inhibition or displacement. High values mean a looser hold on the target, low ones a stronger hold on the target. Take `Cc1cc([C@@H]2CCCN2C)on1.O=C(O)C(=O)O` [Example 2, 3-Methyl-5-(1-methyl-2(S)-pyrrolidinyl)-isoxazole oxalate salt]: the results for the Sleeping time in the test with ethanol-induced narcosis (0.062 μmol/kg i.p.), with ethanol-induced narcosis (0.19 μmol/kg i.p.) and in the test on ethanol-induced narcosis (0.62 μmol/kg i.p.) were 91 ± 20 % of controls, 68 ± 15 % of controls and 51 ± 8 % of controls, respectively. Further, in the test with ethanol-induced narcosis (i.p., p<0.05, one-tailed t test), the “effect of post-treatment on ethanol-induced narcosis” value is on record as “significantly reduced”. In addition, on muscarinic receptors, the Ki turned out to be 160 µM.
